Structures can show the parent of a compound that is named as a salt. Where two headings read alike, the source gives them in different places.
Columns and labels:
[1] = for appearance: 60° C., closed glass bottle; for appearance / agglomerates of the salt as produced: immediately after production (general description); for formation of agglomerates after long storage: above all dry storage (general description); for agglomerates after storage: storage in a closed glass bottle (general description, time not stated)
[2] = Determination of solubility; conditions: for pH of the saturated solution / solubility: one-hour storage at 37° C.; for solubility in words: general description; for solubility: HPLC
[3] = Particle size distribution by laser diffraction; conditions: for d(0.1) ± SD / d(0.5) ± SD / d(0.9) ± SD: average of three measurement cycles, dispersant low-viscosity paraffin
[4] = Determination of hygroscopicity (storage in humidity chambers); format: physicochemical; conditions: storage below 93% humidity, room temperature
[5] = tablets, 60° C. closed glass bottle
[6] = for appearance / total content of chemical contaminations / water content: 40° C./75% relative humidity, open glass bottle; for appearance after storage under humid conditions: 40° C., 75% relative humidity in an open glass bottle (general description, time not stated)
[7] = Granulation 1 with mannitol (55%)
[8] = Direct compression without mannitol, 4 weeks
[9] = Direct compression without mannitol, initial value
[10] = Granulation 1 with mannitol (55%), 4 weeks
[11] = Granulation 1 with mannitol (55%), initial value
[12] = Granulation 2 without mannitol, 4 weeks
[13] = Granulation 2 without mannitol, initial value

| Compound | appearance ([1]; 4 weeks) | appearance ([1]; 8 weeks) | appearance ([1]; 12 weeks) | formation of agglomerates after long storage [1] | pH of the saturated solution ([2]; 0.1 N HCl) | pH of the saturated solution ([2]; Demineralized water) | fraction ≦ 250 μm [3] [%] | d(0.1) ± SD [3] [μm] | d(0.5) ± SD [3] [μm] | d(0.9) ± SD [3] [μm] | water absorption (hygroscopicity) [4] | solubility in citric acid solution [7] | solubility in citric acid solution (Granulation 2 without mannitol) | portion of decomposed active substance [5, 8] [%] | portion of decomposed active substance [5, 9] [%] | portion of decomposed active substance [5, 10] [%] | portion of decomposed active substance [5, 11] [%] | portion of decomposed active substance [5, 12] [%] | portion of decomposed active substance [5, 13] [%] | appearance / agglomerates of the salt as produced [1] | other results |
| --- | --- | --- | --- | --- | --- | --- | --- | --- | --- | --- | --- | --- | --- | --- | --- | --- | --- | --- | --- | --- | --- |
| C#CCN[C@@H]1CCc2ccccc21.C#CCN[C@@H]1CCc2ccccc21.O=S(=O)(O)CCS(=O)(=O)O [Rasagiline edisilate, Rasagiline Edisilate] | unchanged | unchanged | unchanged | does not form any agglomerates | 1.0 | 4.4 | 100.0 | 2.7 ± 0.01 | 12.8 ± 0.08 | 35.1 ± 0.36 | no water absorption | very high | very high | 0.40 | 0.00 | 1.4 | 0.00 | 0.79 | 0.00 | white crystal powder which is free of agglomerates | pH of the saturated solution ([2]; USP acetate buffer, pH 4.5): 4.4; pH of the saturated solution ([2]; USP phosphate buffer, pH 6.8): 6.2; solubility in words [2]: dissolves very rapidly and well; appearance ([6]; 4 weeks): unchanged; appearance ([6]; 8 weeks): unchanged; appearance ([6]; 12 weeks): unchanged |
| C#CCN[C@@H]1CCc2ccccc21 [Rasagiline hydrochloride] |  |  |  |  |  |  |  |  |  |  |  |  |  |  |  |  |  |  |  |  | portion of decomposed active substance ([5]; Direct compression without mannitol, 4 weeks, hydrochloride): 1.5%; portion of decomposed active substance ([5]; Granulation 1 with mannitol (55%), 4 weeks, hydrochloride): 2.4%; portion of decomposed active substance ([5]; Granulation 2 without mannitol, 4 weeks, hydrochloride): 1.9% |
| C#CCN[C@@H]1CCc2ccccc21 [Rasagiline mesylate, rasagiline mesylate] |  |  |  |  |  |  | 100.0 | 13.6 ± 0.05 | 40.5 ± 0.25 | 85.7 ± 0.89 | absorbed large amounts of water and liquefied | very high | very high | 0.46 | 0.00 | 2.6 | 0.00 | 1.3 | 0.00 |  | agglomerates after storage [1]: agglomerates; appearance after storage under humid conditions [6]: sticky powder which is difficult to process |
| rasagiline tartrate | unchanged | unchanged | unchanged |  |  |  | 97.2 | 5.0 ± 0.04 | 40.9 ± 0.57 | 161.2 ± 1.34 |  |  |  | 2.5 | 0.00 | 3.1 | 0.00 | 2.8 | 0.00 | undesired agglomerates | appearance ([6]; 4 weeks): unchanged; appearance ([6]; 8 weeks): unchanged; appearance ([6]; 12 weeks): unchanged |

More lines, main results first:

| appearance ([1]; 4 weeks) | appearance ([1]; 8 weeks) | appearance ([1]; 12 weeks) | formation of agglomerates after long storage [1] | pH of the saturated solution ([2]; 0.1 N HCl) | pH of the saturated solution ([2]; Demineralized water) | fraction ≦ 250 μm [3] [%] | d(0.1) ± SD [3] [μm] | d(0.5) ± SD [3] [μm] | d(0.9) ± SD [3] [μm] | water absorption (hygroscopicity) [4] | solubility in citric acid solution [7] | solubility in citric acid solution (Granulation 2 without mannitol) | portion of decomposed active substance [5, 8] [%] | portion of decomposed active substance [5, 9] [%] | portion of decomposed active substance [5, 10] [%] | portion of decomposed active substance [5, 11] [%] | portion of decomposed active substance [5, 12] [%] | portion of decomposed active substance [5, 13] [%] | Compound | appearance / agglomerates of the salt as produced [1] | other results |
| --- | --- | --- | --- | --- | --- | --- | --- | --- | --- | --- | --- | --- | --- | --- | --- | --- | --- | --- | --- | --- | --- |
| unchanged | unchanged | unchanged | does not form any agglomerates | 1.2 | 2.7 | 98.1 | 19.9 ± 0.02 | 53.0 ± 0.09 | 120.5 ± 0.66 | no water absorption |  |  |  |  |  |  |  |  | Rasagiline Oxalate | white crystal powder which is free of agglomerates | solubility ([2]; 0.1 N HCl): 29.9 mg/mL; solubility ([2]; Demineralized water): 19.7 mg/mL; pH of the saturated solution ([2]; USP acetate buffer, pH 4.5): 3.4; solubility ([2]; USP acetate buffer, pH 4.5): 24.3 mg/mL; pH of the saturated solution ([2]; USP phosphate buffer, pH 6.8): 3.4; solubility ([2]; USP phosphate buffer, pH 6.8): 24.2 mg/mL; solubility in words [2]: much more difficult to dissolve |
|  |  |  |  |  |  |  |  |  |  |  | high | high | 2.9 | 0.00 | 3.0 | 0.00 | 2.5 | 0.00 | rasagiline phosphate |  | agglomerates after storage [1]: agglomerates; appearance after storage under humid conditions [6]: sticky powder which is difficult to process; total content of chemical contaminations ([6]; 4 weeks): 0.05%; water content ([6]; 4 weeks): 0.2%; total content of chemical contaminations ([6]; 8 weeks): 0.19%; water content ([6]; 8 weeks): 0.4%; total content of chemical contaminations ([6]; t0): 0.0%; water content ([6]; t0): 0.1% |
